Results taken from EP1171107B1, “USE OF A PHARMACEUTICAL COMPOSITION IN THE MANUFACTURE OF A MEDICAMENT FOR THE TREATMENT OF PATHOLOGICAL CONDITIONS OF THE EYE CAUSED BY BACTERIA, VIRUSES, FUNGI, YEASTS AND PROTOZOA” (Dr. GERHARD MANN chem.-pharm. Fabrik GmbH, priority 1999, dated 2000).

Columns and labels:
Type in all cases: cell-based
E.coli [1] = assay: Quantitative germ count (re-isolation, surface method) after inoculating the test preparation; details: Ausgangskeimzahl 2,7 x 10^5 KBE/ml
Description: (§1) Escherichia (E.coli) Staphylococcus (S.aureus) Streptococcus (Sc.) Pneumoniae Pseudomonas (P.aeruginosa) Staphylococcus (S. epidermidis) Haemophilus (H. influenzae)
(§2) Die verschiedenen Testkeime wurde jeweils aus einem Lyophilisat in NaCl-Peptonpuffer homogenisiert und auf Caseinpepton-Sojymehlpepton. (Caso-) Agar (Fa. bioMérieux; Art. Nr. 43019) bez. Kochblut-Agar (Fa. bioMérieux; Art. Nr. 43109) subkultiviert. Die Teststämme wurden vor Versuchsbeginn durch Erstellen eines biochemischen Profils mittels ATB/Vitek-System (Fa. bioMérieux, Nürtingen) auf Reinheit und Identität überprüft.
(§3) Die Ausgangskeimzahl wurde im Oberflächenverfahren mit Hilfe eines Spiralplaters (Fa. Meintrup, Lähden) ermittelt und ist im einzelnen den Tabellen 1-12 zu entnehmen.
(§4) Die verschiedenen Testsubstanzen a. bis j. wurden jeweils zu 5 ml in sterile Zentrifugenröhrchen abgefüllt und mit ca. 10^5 KBE^*/ml (* = koloniebildende Einheiten) der oben genannten Testkeime kontaminiert. Pro Substanz wurde für jeden Testkeim und jede zu prüfende Testzeit ein separater Ansatz angeimpft, d.h.10 Testsubstanzen zu jeweils 7 Testzeiten und 6 Testkeime (= insgesamt 502 Testansätze). […] Der Überstand wurde dekantiert und das Pellet in 5 ml NaCl Peptonpuffer aufgenommen und resuspendiert. Die Suspension wurde erneut 10 Minuten bei 3000 rpm abzentrifugiert und 5 ml NaCl-Peptonpuffer aufgenommen und mittels Vortex homogenisiert.
(§5) Die anschließende Keimzahlbestimmung erfolgte im Oberflächenverfahren durch Ausspiralisieren eines […] Aliquots auf Caso-Agar bzw. für H. influenzae auf Kochblut-Agar. Die Platten wurden bei 33±2°C für max. 4 Tage bebrütet. Die Nachweisgrenze des Verfahrens liegt bei 100 KBE/ml.

H.influenzae = assay: as above; details: Ausgangskeimzahl 2,8 x 10^5 KBE/ml
Description: as §1, §2, §3, §4, §5

S.aureus [2] = assay: as above; details: Ausgangskeimzahl 2,6 x 10^5 KBE/ml
Description: as §1, §2, §3, §4, §5

Sc. pneumoniae [3] = assay: as above; details: Ausgangskeimzahl 3,7 x 10^5 KBE/ml
Description: as §1, §2, §3, §4, §5

P.aeruginosa [4] = assay: as above; details: Ausgangskeimzahl 2,7 x 10^5 KBE/ml
Description: as §1, §2, §3
(§6) Die verschiedenen Testsubstanzen a. bis j. wurden jeweils zu 5 ml in sterile Zentrifugenröhrchen abgefüllt und mit ca. 10^5 KBE^*/ml (* = koloniebildende Einheiten) der oben genannten Testkeime kontaminiert. Pro Substanz wurde für jeden Testkeim und jede zu prüfende Testzeit ein separater Ansatz angeimpft, d.h.10 Testsubstanzen zu jeweils 7 Testzeiten und 6 Testkeime (= insgesamt 502 Testansätze). Nach 2, 6, 8, 24, 32, 48 und 72 Stunden wurde dann der jeweilige Testansatz 10 Minuten bei 3000 rpm abzentrifugiert. Der Überstand wurde dekantiert und das Pellet in 5 ml NaCl Peptonpuffer aufgenommen und resuspendiert. Die Suspension wurde erneut 10 Minuten bei 3000 rpm abzentrifugiert und 5 ml NaCl-Peptonpuffer aufgenommen und mittels Vortex homogenisiert.
as §5

S.epidermidis [5] = assay: as above; details: Ausgangskeimzahl 2,1 x 10^5 KBE/ml
Description: as §1, §2, §3, §6, §5

E.coli [6] = assay: Qualitative examination: enrichment of the inoculated test preparation in broth
Description: as §1, §2, §4
(§7) Jeweils 2 ml der Testansätze wurden in 20 ml Caso-Bouillon oder für H. influenzae, in Fildes-Medium der Firma Becton Dickinson, ARt. Nr. 0349-739, angereichert und ebenfalls maximal 4 Tage bei 33± 2°C bebrütet. Ein negatives Ergebnis der Anreicherung belegt die Elimination der inokulierten Keime.

S.aureus [7] = assay: as above
Description: as §1, §2, §4, §7

S.epidermidis [8] = assay: as above
Description: as §1, §2, §4, §7

Sc. pneumoniae [9] = assay: as above
Description: as §1, §2, §4, §7

P.aeruginosa [10] = assay: as above
Description: as §1, §2, §6, §7

SMILES: CC1COc2c(N3CCN(C)CC3)c(F)cc3c(=O)c(C(=O)O)cn1c23 (stereo not shown) [Ofloxacin 0,3 Gew.-%, Ofloxacin, reference compound]
- Ergebnis der Reisolierung (in KBE/ml) (E.coli [1]; 2 h after inoculation): <100 KBE/ml
- Ergebnis der Reisolierung (in KBE/ml) (E.coli [1]; 4 h after inoculation): <100 KBE/ml
- Ergebnis der Reisolierung (in KBE/ml) (E.coli [1]; 6 h after inoculation): <100 KBE/ml
- Ergebnis der Reisolierung (in KBE/ml) (E.coli [1]; 8 h after inoculation): <100 KBE/ml
- Ergebnis der Reisolierung (in KBE/ml) (E.coli [1]; 24 h after inoculation): <100 KBE/ml
- Ergebnis der Reisolierung (in KBE/ml) (E.coli [1]; 32 h after inoculation): <100 KBE/ml
- Ergebnis der Reisolierung (in KBE/ml) (E.coli [1]; 48 h after inoculation): <100 KBE/ml
- Ergebnis der Reisolierung (in KBE/ml) (E.coli [1]; 72 h after inoculation): <100 KBE/ml
- Ergebnis der Reisolierung (in KBE/ml) (H.influenzae; 2 h after inoculation): <100 KBE/ml
- Ergebnis der Reisolierung (in KBE/ml) (H.influenzae; 4 h after inoculation): <100 KBE/ml
- Ergebnis der Reisolierung (in KBE/ml) (H.influenzae; 6 h after inoculation): <100 KBE/ml
- Ergebnis der Reisolierung (in KBE/ml) (H.influenzae; 8 h after inoculation): <100 KBE/ml
- Ergebnis der Reisolierung (in KBE/ml) (H.influenzae; 24 h after inoculation): <100 KBE/ml
- Ergebnis der Reisolierung (in KBE/ml) (H.influenzae; 32 h after inoculation): <100 KBE/ml
- Ergebnis der Reisolierung (in KBE/ml) (H.influenzae; 48 h after inoculation): <100 KBE/ml
- Ergebnis der Reisolierung (in KBE/ml) (H.influenzae; 72 h after inoculation): <100 KBE/ml
- Ergebnis der Reisolierung (in KBE/ml) (S.aureus [2]; 2 h after inoculation): <100 KBE/ml
- Ergebnis der Reisolierung (in KBE/ml) (S.aureus [2]; 4 h after inoculation): <100 KBE/ml
- Ergebnis der Reisolierung (in KBE/ml) (S.aureus [2]; 6 h after inoculation): <100 KBE/ml
- Ergebnis der Reisolierung (in KBE/ml) (S.aureus [2]; 8 h after inoculation): <100 KBE/ml
- Ergebnis der Reisolierung (in KBE/ml) (S.aureus [2]; 24 h after inoculation): <100 KBE/ml
- Ergebnis der Reisolierung (in KBE/ml) (S.aureus [2]; 32 h after inoculation): <100 KBE/ml
- Ergebnis der Reisolierung (in KBE/ml) (S.aureus [2]; 48 h after inoculation): <100 KBE/ml
- Ergebnis der Reisolierung (in KBE/ml) (S.aureus [2]; 72 h after inoculation): <100 KBE/ml
- Ergebnis der Reisolierung (in KBE/ml) (Sc. pneumoniae [3]; 2 h after inoculation): <100 KBE/ml
- Ergebnis der Reisolierung (in KBE/ml) (Sc. pneumoniae [3]; 4 h after inoculation): <100 KBE/ml
- Ergebnis der Reisolierung (in KBE/ml) (Sc. pneumoniae [3]; 6 h after inoculation): <100 KBE/ml
- Ergebnis der Reisolierung (in KBE/ml) (Sc. pneumoniae [3]; 8 h after inoculation): <100 KBE/ml
- Ergebnis der Reisolierung (in KBE/ml) (Sc. pneumoniae [3]; 24 h after inoculation): <100 KBE/ml
- Ergebnis der Reisolierung (in KBE/ml) (Sc. pneumoniae [3]; 32 h after inoculation): <100 KBE/ml
- Ergebnis der Reisolierung (in KBE/ml) (Sc. pneumoniae [3]; 48 h after inoculation): <100 KBE/ml
- Ergebnis der Reisolierung (in KBE/ml) (Sc. pneumoniae [3]; 72 h after inoculation): <100 KBE/ml
- Ergebnis der Reisolierung (in KBE/ml) (P.aeruginosa [4]; 2 h after inoculation): <100 KBE/ml
- Ergebnis der Reisolierung (in KBE/ml) (P.aeruginosa [4]; 4 h after inoculation): <100 KBE/ml
- Ergebnis der Reisolierung (in KBE/ml) (P.aeruginosa [4]; 6 h after inoculation): <100 KBE/ml
- Ergebnis der Reisolierung (in KBE/ml) (P.aeruginosa [4]; 8 h after inoculation): <100 KBE/ml
- Ergebnis der Reisolierung (in KBE/ml) (P.aeruginosa [4]; 24 h after inoculation): <100 KBE/ml
- Ergebnis der Reisolierung (in KBE/ml) (P.aeruginosa [4]; 32 h after inoculation): <100 KBE/ml
- Ergebnis der Reisolierung (in KBE/ml) (P.aeruginosa [4]; 48 h after inoculation): <100 KBE/ml
- Ergebnis der Reisolierung (in KBE/ml) (P.aeruginosa [4]; 72 h after inoculation): <100 KBE/ml
- Ergebnis der Reisolierung (in KBE/ml) (S.epidermidis [5]; 2 h after inoculation): <100 KBE/ml
- Ergebnis der Reisolierung (in KBE/ml) (S.epidermidis [5]; 4 h after inoculation): <100 KBE/ml
- Ergebnis der Reisolierung (in KBE/ml) (S.epidermidis [5]; 6 h after inoculation): <100 KBE/ml
- Ergebnis der Reisolierung (in KBE/ml) (S.epidermidis [5]; 8 h after inoculation): <100 KBE/ml
- Ergebnis der Reisolierung (in KBE/ml) (S.epidermidis [5]; 24 h after inoculation): <100 KBE/ml
- Ergebnis der Reisolierung (in KBE/ml) (S.epidermidis [5]; 32 h after inoculation): <100 KBE/ml
- Ergebnis der Reisolierung (in KBE/ml) (S.epidermidis [5]; 48 h after inoculation): <100 KBE/ml
- Ergebnis der Reisolierung (in KBE/ml) (S.epidermidis [5]; 72 h after inoculation): <100 KBE/ml
- Ergebnis der Reisolierung qualitiativ (+/-) nach Anreicherung (E.coli [6]; 2 h after inoculation): -
- Ergebnis der Reisolierung qualitiativ (+/-) nach Anreicherung (E.coli [6]; 4 h after inoculation): -
- Ergebnis der Reisolierung qualitiativ (+/-) nach Anreicherung (E.coli [6]; 6 h after inoculation): -
- Ergebnis der Reisolierung qualitiativ (+/-) nach Anreicherung (E.coli [6]; 8 h after inoculation): -
- Ergebnis der Reisolierung qualitiativ (+/-) nach Anreicherung (E.coli [6]; 24 h after inoculation): -
- Ergebnis der Reisolierung qualitiativ (+/-) nach Anreicherung (E.coli [6]; 32 h after inoculation): -
- Ergebnis der Reisolierung qualitiativ (+/-) nach Anreicherung (E.coli [6]; 48 h after inoculation): -
- Ergebnis der Reisolierung qualitiativ (+/-) nach Anreicherung (E.coli [6]; 72 h after inoculation): -
- Ergebnis der Reisolierung qualitiativ (+/-) nach Anreicherung (S.aureus [7]; 2 h after inoculation): +
- Ergebnis der Reisolierung qualitiativ (+/-) nach Anreicherung (S.aureus [7]; 4 h after inoculation): +
- Ergebnis der Reisolierung qualitiativ (+/-) nach Anreicherung (S.aureus [7]; 6 h after inoculation): +
- Ergebnis der Reisolierung qualitiativ (+/-) nach Anreicherung (S.aureus [7]; 8 h after inoculation): -
- Ergebnis der Reisolierung qualitiativ (+/-) nach Anreicherung (S.aureus [7]; 24 h after inoculation): -
- Ergebnis der Reisolierung qualitiativ (+/-) nach Anreicherung (S.aureus [7]; 32 h after inoculation): -
- Ergebnis der Reisolierung qualitiativ (+/-) nach Anreicherung (S.aureus [7]; 48 h after inoculation): -
- Ergebnis der Reisolierung qualitiativ (+/-) nach Anreicherung (S.aureus [7]; 72 h after inoculation): -
- Ergebnis der Reisolierung qualitiativ (+/-) nach Anreicherung (S.epidermidis [8]; 2 h after inoculation): +
- Ergebnis der Reisolierung qualitiativ (+/-) nach Anreicherung (S.epidermidis [8]; 4 h after inoculation): +
- Ergebnis der Reisolierung qualitiativ (+/-) nach Anreicherung (S.epidermidis [8]; 6 h after inoculation): +
- Ergebnis der Reisolierung qualitiativ (+/-) nach Anreicherung (S.epidermidis [8]; 8 h after inoculation): -
- Ergebnis der Reisolierung qualitiativ (+/-) nach Anreicherung (S.epidermidis [8]; 24 h after inoculation): -
- Ergebnis der Reisolierung qualitiativ (+/-) nach Anreicherung (S.epidermidis [8]; 32 h after inoculation): -
- Ergebnis der Reisolierung qualitiativ (+/-) nach Anreicherung (S.epidermidis [8]; 48 h after inoculation): -
- Ergebnis der Reisolierung qualitiativ (+/-) nach Anreicherung (S.epidermidis [8]; 72 h after inoculation): -
- Ergebnis der Reisolierung qualitiativ (+/-) nach Anreicherung (Sc. pneumoniae [9]; 2 h after inoculation): -
- Ergebnis der Reisolierung qualitiativ (+/-) nach Anreicherung (Sc. pneumoniae [9]; 4 h after inoculation): +
- Ergebnis der Reisolierung qualitiativ (+/-) nach Anreicherung (Sc. pneumoniae [9]; 6 h after inoculation): -
- Ergebnis der Reisolierung qualitiativ (+/-) nach Anreicherung (Sc. pneumoniae [9]; 8 h after inoculation): -
- Ergebnis der Reisolierung qualitiativ (+/-) nach Anreicherung (Sc. pneumoniae [9]; 24 h after inoculation): -
- Ergebnis der Reisolierung qualitiativ (+/-) nach Anreicherung (Sc. pneumoniae [9]; 32 h after inoculation): -
- Ergebnis der Reisolierung qualitiativ (+/-) nach Anreicherung (Sc. pneumoniae [9]; 48 h after inoculation): -
- Ergebnis der Reisolierung qualitiativ (+/-) nach Anreicherung (Sc. pneumoniae [9]; 72 h after inoculation): -
- Ergebnis der Reisolierung qualitiativ (+/-) nach Anreicherung (P.aeruginosa [10]; 2 h after inoculation): -
- Ergebnis der Reisolierung qualitiativ (+/-) nach Anreicherung (P.aeruginosa [10]; 4 h after inoculation): +
- Ergebnis der Reisolierung qualitiativ (+/-) nach Anreicherung (P.aeruginosa [10]; 6 h after inoculation): -
- Ergebnis der Reisolierung qualitiativ (+/-) nach Anreicherung (P.aeruginosa [10]; 8 h after inoculation): -
- Ergebnis der Reisolierung qualitiativ (+/-) nach Anreicherung (P.aeruginosa [10]; 24 h after inoculation): -
- Ergebnis der Reisolierung qualitiativ (+/-) nach Anreicherung (P.aeruginosa [10]; 32 h after inoculation): -
- Ergebnis der Reisolierung qualitiativ (+/-) nach Anreicherung (P.aeruginosa [10]; 48 h after inoculation): -
- Ergebnis der Reisolierung qualitiativ (+/-) nach Anreicherung (P.aeruginosa [10]; 72 h after inoculation): -
